A word on the IC50: it is the point on the concentration scale where inhibition reaches its midpoint. A lower IC50 goes with inhibition by little substance.

Structures are written as SMILES.

The assay has as its system E. coli HB101/pPAP5 (agglutination of human erythrocytes). The assay is described as follows: Inhibition of haemagglutination (HA inhibition) of human erythrocytes by E. coli. The assay is classed as cell-based. To be noted: for IC50: Escherichia coli, Erythrocyte; for Relative potency (%): in relation to compound 1, calculated from IC50; for ΔΔG^o: ΔΔG°=RTlnKrel, Krel = IC50 ratio to compound 1; for inhibitory power (in words): haemagglutination inhibition, compared with the methyl galabioside / unmodified galabioside. From the text: Bacterial strain HB101/pPAPS. Plasmid pPAP5 carries the pap gene cluster isolated from the uropathogenic E.coli isolate J96. The clone produces P pill that mediate agglutination of human erythrocytes by binding to the galabiose-containing P-blood group antigens present on the erythrocyte surface. The galabiose binding property resides in the PapG gene product which is present at the tip of the P pilus as a minor component.
HA of a 1% human P erythrocyte suspension in phosphate-buffered saline was determined for agar-grown organisms by suspending the bacteria to a Klett of 490 (ca 1×10^9 bacteria/mL). A sample of the bacterial suspension (25 μL) was serially diluted in microtiter plates containing 25 μL PBS in each well. An equal volume of erythrocyte suspension was added and after mixing, the plates were incubated at 4° C. for 18 h. The HA endpoint was defined as the dilution in the last well before erythrocyte buttons were formed. The titer was expressed as the reciprocal of the endpoint dilution.
The HA titer of the strains to be tested was determined as described above and the cells were diluted so that each strain gave a titer of 64. The concentration of each of the analogues 1-25 was adjusted to 100 mM and 25 μL of each analogue was serially diluted in microtiter plates containing 25 μL of PBS in each well. The bacterial suspension (25 μL; HA titer=64) was then added to each well. After incubation for 30 min at room temperature, human erythrocytes (1% suspension) were added by gentle mixing and the plates were incubated at 4° C. overnight. The endpoint was defined as the greatest dilution of the analogue (minimal concentration) that gave a 50% inhibition of the HA (IC50).
The IC50 -values given in the tables are mean values from 3 consecutive runs. The ratio of the IC50 -value for an inhibitor and compound 1 is the relative equilibrium constant, Krel. This value was used for the calculation of the difference free energy values (ΔΔG°) using the expression ΔΔG°=RTlnKrel. It should be stressed that the conclusions made here about the nature of the adhesin receptor is based on the assumption that all the inhibitors have similar over-all confirmations oriented in a similar way in the receptor side and that only one type of galablest-specific receptor is present in the adhesin.

The mark [1] stands for this setting: Table 1, inhibition of agglutination of human erythrocytes by E. coli, mean of 3 consecutive runs.
The mark [2] stands for this setting: Table 2, glycoside analogs, inhibition of agglutination of human erythrocytes by E. coli, mean of 3 runs.
Setting [3] is: Table 2, in relation to compound 1 (IC50 0.20 mM).
Setting [4] is: Table 2, relative to compound 1 (IC50 0.20 mM).
The mark [5] stands for this setting: Table 2, footnote a: separate inhibition experiment where reference compound 1 showed IC50 = 0.0434 mM.
The mark [6] stands for this setting: Table 2, footnote a: separate experiment, relative to compound 1 IC50 = 0.0434 mM.

As to `CO[C@@H]1O[C@H](CO)[C@H](O[C@H]2O[C@H](C)[C@H](O)[C@H](O)[C@H]2O)[C@H](O)[C@H]1O` [Compound 8], it took 3700 µM to reach half-maximal inhibition under setting [1] (IC50). Also, under “Table 1”, the “Relative potency (%)” value is given as 5.3% and the “ΔΔG^o” value was 1.63 kcal/mol.

Regarding `CO[C@H]1O[C@H](CO)[C@H](O[C@H]2O[C@H](CO)[C@H](O)[C@H](O)[C@H]2O)[C@H](O)[C@H]1O` [Compound 23], it took 2100 µM to reach half-maximal inhibition under setting [2] (IC50). Further, the “Inhib. power (%)” value under setting [3] is given as 9.0%. Also, under setting [4], the “ΔΔG (kJmol^-1)” value was found to be 5.6 kJmol^-1.

Under setting [2], `C[Si](C)(C)CCO[C@@H]1O[C@H](CO)[C@H](O[C@H]2O[C@H](CO)[C@H](O)[C@H](O)[C@H]2O)[C@H](O)[C@H]1O` [Compound 20] had a 50% inhibitory concentration (IC50) of 49 µM. In addition, the “Inhib. power (%)” value under setting [3] was determined as 400%. Under setting [4], the “ΔΔG (kJmol^-1)” value was -3.2 kJmol^-1.

In the case of `OC[C@H]1O[C@H](O[C@@H]2[C@H](O)[C@@H](O)[C@H](OCCSCCCCCCCCCSCCO[C@@H]3O[C@H](CO)[C@H](O[C@H]4O[C@H](CO)[C@H](O)[C@H](O)[C@H]4O)[C@H](O)[C@H]3O)O[C@@H]2CO)[C@H](O)[C@@H](O)[C@H]1O` [Compound 25], the “inhibitory power (in words)” value was “very high inhibitory power”. In addition, 6.8 µM corresponded to half-maximal inhibition under setting [2] (IC50). Besides, under setting [3], the “Inhib. power (%)” value is recorded as 2900%. The “ΔΔG (kJmol^-1)” value under setting [4] is -7.8 kJmol^-1.

In turn, `CO[C@@H]1O[C@H](CO)[C@H](O[C@H]2O[C@H](CO)[C@H](F)[C@H](O)[C@H]2O)[C@H](O)[C@H]1O` [Compound 13] had an IC50 under setting [1] of 3500 µM. For the setting “Table 1”, the “Relative potency (%)” value is given as 5.6% and the “ΔΔG^o” value is 1.6 kcal/mol.

`CO[C@@H]1O[C@H](CO)[C@H](O[C@@H]2C[C@@H](O)[C@@H](O)[C@@H](CO)O2)[C@H](O)[C@H]1O` [Compound 5] showed an IC50 under setting [1] of 2600 µM. For the setting “Table 1”, the “Relative potency (%)” value is 7.6% and the “ΔΔG^o” value is 1.43 kcal/mol.

`CCO[C@@H]1O[C@H](CO)[C@@H](O[C@@H]2O[C@H](CO)[C@H](O)[C@H](O)[C@H]2O)[C@H](O)[C@H]1O` [Compound 26, Galβ1-4GlcβOCH2 CH3, reference compound] displayed an IC50 under setting [2] of over 25000 µM. Moreover, the “Inhib. power (%)” value under setting [3] is on record as under 1.0%. Also, the “ΔΔG (kJmol^-1)” value under setting [4] is reported as over 11 kJmol^-1.

As to `OC[C@H]1O[C@H](O[C@@H]2[C@H](O)[C@@H](O)C(O)O[C@@H]2CO)[C@H](O)[C@@H](O)[C@H]1O` (stereo partly shown) [Compound 24], 1400 µM corresponded to half-maximal inhibition under setting [2] (IC50). Also, under setting [3], the “Inhib. power (%)” value is 14%. Also, the “ΔΔG (kJmol^-1)” value under setting [4] was 4.6 kJmol^-1.

Under setting [1], `CO[C@@H]1O[C@H](CO)[C@H](O[C@H]2O[C@H](CO)C[C@H](O)[C@H]2O)[C@H](O)[C@H]1O` [Compound 7] came in with an IC50 of 10000 µM. Where the note is “Table 1”, the “Relative potency (%)” value is recorded as 1.9% and the “ΔΔG^o” value came to 2.2 kcal/mol.

Consider `CCS[C@@H]1O[C@H](CO)[C@H](O[C@H]2O[C@H](CO)[C@H](O)[C@H](O)[C@H]2O)[C@H](O)[C@H]1O` [Compound 28, Ethyl 1-thio-4-O-(α-D-galactopyranosyl)-β-D-galactopyranoside], for which the half-inhibitory concentration (IC50) under setting [5] was found to be 16.3 µM. Further, under setting [6], the “Inhib. power (%)” value is on record as 266% and the “ΔΔG (kJmol^-1)” value is reported as -2.3 kJmol^-1.

For `CO[C@@H]1O[C@H](CO)[C@H](O[C@H]2O[C@H](CF)[C@H](O)[C@H](O)[C@H]2O)[C@H](O)[C@H]1O` [Compound 14], the half-inhibitory concentration (IC50) under setting [1] came to 350 µM. In addition, where the note is “Table 1”, the “Relative potency (%)” value was 56% and the “ΔΔG^o” value stood at 0.323 kcal/mol.

Turning to `CO[C@H]1C[C@@H](O)[C@@H](O[C@H]2O[C@H](CO)[C@H](O)[C@H](O)[C@H]2O)[C@@H](CO)O1` [Compound 2], it took 350 µM to reach half-maximal inhibition under setting [1] (IC50). Moreover, under “Table 1”, the “Relative potency (%)” value is 56% and the “ΔΔG^o” value stood at 0.335 kcal/mol.

In the case of `CO[C@@H]1O[C@H](CO)[C@H](O[C@H]2O[C@H](CO)[C@H](O)[C@H](O)[C@H]2O)C[C@H]1O` [Compound 3], inhibition under setting [1] was half-maximal at 1000 µM (IC50). Where the note is “Table 1”, the “Relative potency (%)” value is 19% and the “ΔΔG^o” value worked out at 0.932 kcal/mol.

Take `CO[C@@H]1O[C@H](CO)[C@H](O[C@H]2O[C@H](CO)[C@H](O)[C@H](O)[C@H]2O)[C@H](C)[C@H]1O` [Compound 15]: under setting [1], the midpoint of inhibition, the IC50, lay at 390 µM. Further, for the setting “Table 1”, the “Relative potency (%)” value is on record as 50% and the “ΔΔG^o” value was 0.382 kcal/mol.

Under setting [1], `COC[C@H]1O[C@@H](OC)[C@H](O)[C@@H](O)[C@H]1O[C@H]1O[C@H](CO)[C@H](O)[C@H](O)[C@H]1O` [Compound 10] had an IC50 of over 25000 µM. Moreover, where the note is “Table 1”, the “Relative potency (%)” value is under 1% and the “ΔΔG^o” value was over 2.63 kcal/mol.

On to `CO[C@@H]1O[C@H](CO)[C@H](O[C@H]2O[C@H](CO)[C@H](O)[C@H](O)[C@H]2O)[C@H](O)[C@H]1O` [Compound 1, Galα1-4GalβOMe, reference compound], for which the IC50 was determined as 200 µM under setting [1], 43.4 µM under setting [5] and 200 µM under setting [2]. Further, where the note is “Table 1”, the “ΔΔG^o” value is 0 kcal/mol. Also, under setting [4], the “ΔΔG (kJmol^-1)” value is 0.00 kJmol^-1.

For `C[Si](C)(C)CCO[C@@H]1O[C@H](CO)[C@@H](O[C@@H]2O[C@H](CO)[C@H](O[C@H]3O[C@H](CO)[C@H](O)[C@H](O)[C@H]3O)[C@H](O)[C@H]2O)[C@H](O)[C@H]1O` [Compound 22], under setting [2], half-maximal inhibition (IC50) was put at 260 µM. Moreover, the “Inhib. power (%)” value under setting [3] worked out at 75%. In addition, the “ΔΔG (kJmol^-1)” value under setting [4] was found to be 0.7 kJmol^-1.

In the case of `CCCCS(=O)(=O)CC(CO[C@@H]1O[C@H](CO)[C@H](O[C@H]2O[C@H](CO)[C@H](O)[C@H](O)[C@H]2O)[C@H](O)[C@H]1O)CS(=O)(=O)CCCC` [Compound 27, 3-Butylsulfonyl-2-butylsulfonylmethylpropyl 4-O-α-D-galactopyranosyl-β-D-galactopyranoside], half-maximal inhibition under setting [5] (IC50) required 2.3 µM. Also, under setting [6], the “Inhib. power (%)” value is recorded as 1887% and the “ΔΔG (kJmol^-1)” value is -6.8 kJmol^-1.

On to `CC[C@@H]1[C@@H](O)[C@H](OC)O[C@H](CO)[C@@H]1O[C@H]1O[C@H](CO)[C@H](O)[C@H](O)[C@H]1O` [Compound 16], for which the IC50 under setting [1] is 3800 µM. For the setting “Table 1”, the “Relative potency (%)” value is given as 5.1% and the “ΔΔG^o” value came out at 1.65 kcal/mol.

Turning to `CCO[C@@H]1O[C@H](CO)[C@H](O[C@H]2O[C@H](CO)[C@H](O)[C@H](O)[C@H]2O)[C@H](O)[C@H]1O` [Compound 18], under setting [2], the concentration for half-maximal inhibition (IC50) was determined as 130 µM. The “Inhib. power (%)” value under setting [3] came out at 150%. The “ΔΔG (kJmol^-1)” value under setting [4] is -0.9 kJmol^-1.

The compound `CO[C@@H]1O[C@H](CO)[C@H](O[C@H]2O[C@H](CO)[C@H](O)C[C@H]2O)[C@H](O)[C@H]1O` [Compound 6] showed a 50% inhibitory concentration (IC50) under setting [1] of 6500 µM. Where the note is “Table 1”, the “Relative potency (%)” value was 3.0% and the “ΔΔG^o” value stood at 1.96 kcal/mol.

Turning to `CO[C@@H]1O[C@H](CO)[C@H](O[C@H]2O[C@H](CO)[C@H](O)[C@H](OC)[C@H]2O)[C@H](O)[C@H]1O` [Compound 11, Methyl 4-O-(3-O-methyl-α-D-galactopyranosyl)-β-D-galactopyranoside], the “inhibitory power (in words)” value was “marked increase in the inhibitory power”. The compound further came in with a concentration for half-maximal inhibition (IC50) under setting [1] of 87 µM. For the same compound, where the note is “Table 1”, the “Relative potency (%)” value is given as 220% and the “ΔΔG^o” value was -0.43 kcal/mol.

In turn, `OCC(O)CO[C@@H]1O[C@H](CO)[C@H](O[C@H]2O[C@H](CO)[C@H](O)[C@H](O)[C@H]2O)[C@H](O)[C@H]1O` (stereo partly shown) [Compound 21] came in with a half-maximal inhibitory concentration (IC50) under setting [2] of 130 µM. Under setting [3], the “Inhib. power (%)” value came to 150%. For the same compound, the “ΔΔG (kJmol^-1)” value under setting [4] is given as -0.9 kJmol^-1.

For the compound `CO[C@@H]1O[C@H](C)[C@H](O[C@H]2O[C@H](CO)[C@H](O)[C@H](O)[C@H]2O)[C@H](O)[C@H]1O` [Compound 4], the concentration for half-maximal inhibition (IC50) under setting [1] worked out at 4200 µM. Where the note is “Table 1”, the “Relative potency (%)” value is recorded as 4.7% and the “ΔΔG^o” value is 1.7 kcal/mol.

With `CO[C@@H]1O[C@H](CF)[C@H](O[C@H]2O[C@H](CO)[C@H](O)[C@H](O)[C@H]2O)[C@H](O)[C@H]1O` [Compound 12], the IC50 under setting [1] was 9300 µM. Where the note is “Table 1”, the “Relative potency (%)” value is listed as 2.1% and the “ΔΔG^o” value is 2.15 kcal/mol.

In the case of `CO[C@@H]1O[C@H](CO)[C@H](O[C@H]2O[C@H](CO)[C@H](O)[C@H](O)[C@H]2O)[C@H](OC)[C@H]1O` [Compound 9], under setting [1], the midpoint of inhibition, the IC50, lay at 1600 µM. For the same compound, under “Table 1”, the “Relative potency (%)” value is 12% and the “ΔΔG^o” value is 1.17 kcal/mol.
